According to patent US6855710B2, “Substituted indolines with an inhibitory effect on various kinases and complexes of CDKs” (Boehringer Ingelheim Pharma KG, priority 1998, dated 2005):

Row | SMILES | melting point
1 | CCNC(=O)Nc1ccc(N/C(=C2\C(=O)Nc3ccccc32)c2ccccc2)cc1 [Example 45, (Z)-3-[1-(4-ethylaminocarbonylamino-phenylamino)-1-phenyl-methylidene]-2-indolinone] | 264 to 265 °C
2 | CCS(=O)(=O)N(CC(=O)O)c1ccc(N/C(=C2\C(=O)Nc3ccccc32)c2ccccc2)cc1 [Example 298, (Z)-3-{1-[4-(N-carboxymethyl-N-ethylsulphonyl-amino)-phenylamino]-1-phenyl-methylidene}-2-indolinone] | 240 to 242 °C
3 | CN(C)CCS(=O)(=O)N(C)c1ccc(N/C(=C2\C(=O)Nc3ccccc32)c2ccccc2)cc1 [Example 382, (Z)-3-{1-[4-(N-(2-dimethylamino-ethylsulphonyl)-N-methyl-amino)-phenylamino]-1-phenyl-methylidene}-2-indolinone] | 165 to 168 °C
4 | CC(C)(C)OC(=O)NCC(=O)NCc1ccc(N/C(=C2\C(=O)Nc3ccc([N+](=O)[O-])cc32)c2ccccc2)cc1 [Example 144, (Z)-3-[1-(4-tert.butoxycarbonylaminomethylcarbonylaminomethyl-phenylamino)-1-phenyl-methylidene]-5-nitro-2-indolinone] | 219 to 221 °C (dec.)
5 | CN(C)CCN(c1ccc(N/C(=C2\C(=O)Nc3ccccc32)c2ccc(CN)cc2)cc1)S(C)(=O)=O [Example 426, (Z)-3-{1-[4-(N-(2-dimethylaminoethyl)-N-methylsulphonyl-amino)-phenylamino]-1-(4-aminomethyl-phenyl)-methylidene}-2-indolinone] | 203 to 205 °C
6 | O=C1Nc2ccccc2/C1=C(/Nc1ccc(OCCCN2CCCCC2)cc1)c1ccccc1 [Example 287, (Z)-3-{1-[4-(3-piperidinopropyloxy)-phenylamino]-1-phenyl-methylidene}-2-indolinone] | 223 to 225 °C
7 | COCC(=O)Nc1ccc(N/C(=C2\C(=O)Nc3ccccc32)c2ccccc2)cc1 [Example 40, (Z)-3-[1-(4-methoxymethylcarbonylamino-phenylamino)-1-phenyl-methylidene]-2-indolinone] | 238 to 240 °C
8 | CNC(=O)CN(c1cccc(N/C(=C2\C(=O)Nc3ccccc32)c2ccc(CNC(C)=O)cc2)c1)S(C)(=O)=O [Example 419, (Z)-3-{1-[3-(N-methylaminocarbonylmethyl-N-methylsulphonyl-amino)-phenylamino]-1-(4-acetylaminomethyl-phenyl)-methylidene}-2-indolinone] | 242 °C
9 | CN(C)CCNC(=O)CN(c1cccc(N/C(=C2\C(=O)Nc3ccccc32)c2ccccc2)c1)S(C)(=O)=O [Example 322, (Z)-3-{1-[3-(N-(2-dimethylamino-ethylaminocarbonylmethyl)-N-methylsulphonyl-amino)-phenylamino]-1-phenyl-methylidene}-2-indolinone] | 179 to 181 °C
10 | CC(=O)NC(c1ccc(N/C(=C2\C(=O)Nc3ccc([N+](=O)[O-])cc32)c2ccccc2)cc1)N(C)C(=O)OC(C)(C)C (stereo not shown) [Example 145, (Z)-3-{1-[4-((N-tert.butoxycarbonyl-N-methyl-amino)-methylcarbonylaminomethyl)-phenylamino]-1-phenyl-methylidene}-5-nitro-2-indolinone] | 225 to 227 °C (dec.)
11 | COCCN(C)C(=O)c1ccc(N/C(=C2\C(=O)Nc3ccccc32)c2ccccc2)cc1 [Example 389, (Z)-3-{1-[4-(N-(2-methoxyethyl)-N-methyl-aminocarbonyl)-phenylamino]-1-phenyl-methylidene}-2-indolinone] | 198 to 200 °C
12 | CN(C)C(=O)CN(c1ccc(N/C(=C2\C(=O)Nc3ccccc32)c2ccccc2)cc1)S(C)(=O)=O [Example 193, (Z)-3-{1-[4-(N-dimethylaminocarbonylmethyl-N-methylsulphonylamino)-phenylamino]-1-phenyl-methylidene}-2-indolinone] | 260 to 262 °C
13 | CC(=O)NCc1ccc(/C(Nc2cccc(N(CCCN(C)C)S(C)(=O)=O)c2)=C2/C(=O)Nc3ccccc32)cc1 [Example 425, (Z)-3-{1-[3-(N-(3-dimethylaminopropyl)-N-methylsulphonyl-amino)-phenylamino]-1-(4-acetylaminomethyl-phenyl)-methylidene}-2-indolinone] | 208 °C
14 | CN(C(=C1C(=O)Nc2ccccc21)c1ccccc1)c1ccc(C#N)cc1 [Example 61, 3-{1-[N-(4-cyanophenyl)-N-methyl-amino]-1-phenyl-methylidene}-2-indolinone] | 239 °C
15 | CS(=O)(=O)N(CC(N)=O)c1ccc(N/C(=C2\C(=O)Nc3ccccc32)c2ccccc2)cc1 [Example 191, (Z)-3-{1-[4-(N-aminocarbonylmethyl-N-methylsulphonyl-amino)-phenylamino]-1-phenyl-methylidene}-2-indolinone] | 276 to 278 °C
16 | CS(=O)(=O)Nc1cccc(N/C(=C2\C(=O)Nc3ccccc32)c2ccccc2)c1 [Example 183, (Z)-3-[1-(3-methylsulphonylamino-phenylamino)-1-phenyl-methylidene]-2-indolinone] | 275 °C
17 | CN(c1ccc(N/C(=C2\C(=O)Nc3ccccc32)c2ccccc2)cc1)S(=O)(=O)CCN1CCCCC1 [Example 383, (Z)-3-{1-[4-(N-(2-piperidinoethylsulphonyl)-N-methyl-amino)-phenylamino]-1-phenyl-methylidene}-2-indolinone] | 121 to 123 °C
18 | C[C@@H](NC(=O)OC(C)(C)C)c1ccc(N/C(=C2\C(=O)Nc3ccc([N+](=O)[O-])cc32)c2ccccc2)cc1 [Example 125, (Z,R)-3-{1-[4-(1-tert.butoxycarbonylamino-ethyl)-phenylamino]-1-phenyl-methylidene}-5-nitro-2-indolinone] | 247 to 249 °C
19 | CNC(=O)CN(c1cccc(N/C(=C2\C(=O)Nc3ccccc32)c2ccc(CN)cc2)c1)S(C)(=O)=O [Example 418, (Z)-3-{1-[3-(N-methylaminocarbonylmethyl-N-methylsulphonyl-amino)-phenylamino]-1-(4-aminomethyl-phenyl)-methylidene}-2-indolinone] | 164 °C
20 | CN(c1cccc(N/C(=C2\C(=O)Nc3ccccc32)c2ccccc2)c1)S(C)(=O)=O [Example 184, (Z)-3-{1-[3-(N-methyl-N-methylsulphonyl-amino)-phenylamino]-1-phenyl-methylidene}-2-indolinone] | 261 °C
21 | CN(C)CCN(c1cccc(N/C(=C2\C(=O)Nc3ccccc32)c2ccccc2)c1)S(C)(=O)=O [Example 324, (Z)-3-{1-[3-(N-(2-dimethylaminoethyl)-N-methylsulphonyl-amino)-phenylamino]-1-phenyl-methylidene}-2-indolinone] | 208 to 211 °C

Results, then the compound that gave them:

Row | melting point | SMILES
22 | 344 to 346 °C | CS(=O)(=O)Nc1ccc(N/C(=C2\C(=O)Nc3ccc([N+](=O)[O-])cc32)c2ccccc2)cc1 [Example 196, (Z)-3-[(4-methylsulphonylamino-phenylamino)-1-phenyl-methylidene]-5-nitro-2-indolinone]
23 | 237 to 240 °C | CN(C)Cc1ccc(N/C(=C2\C(=O)Nc3ccccc32)c2ccccc2)cc1 [Example 266, (Z)-3-{1-[4-(dimethylaminomethyl)-phenylamino]-1-phenyl-methylidene}-2-indolinone]
24 | 201 to 202 °C | CCCNCc1ccc(N/C(=C2\C(=O)Nc3ccc([N+](=O)[O-])cc32)c2ccccc2)cc1 [Example 162, (Z)-3-[1-(4-propylaminomethyl-phenylamino)-1-phenyl-methylidene]-5-nitro-2-indolinone]
25 | 213 °C | CN(C)Cc1ccc(N/C(=C2\C(=O)Nc3ccccc32)c2ccc(Cl)cc2)cc1 [Example 221, (Z)-3-[1-(4-dimethylaminomethyl-phenylamino)-1-(4-chlorophenyl)-methylidene]-2-indolinone]
26 | 212 °C | CCCS(=O)(=O)N(CCN(C)C)c1ccc(N/C(=C2\C(=O)Nc3ccc([N+](=O)[O-])cc32)c2ccccc2)cc1 [Example 310, (Z)-3-{1-[4-(N-(2-dimethylaminoethyl)-N-propylsulphonyl-amino)-phenylamino]-1-phenyl-methylidene}-5-nitro-2-indolinone]
27 | 228 to 230 °C | CC(=O)N(CCN(C)C)c1ccc(N/C(=C2\C(=O)Nc3ccc([N+](=O)[O-])cc32)c2ccccc2)cc1 [Example 328, (Z)-3-{1-[4-(N-(2-dimethylaminoethyl)-N-acetyl-amino)-phenylamino]-1-phenyl-methylidene}-5-nitro-2-indolinone]
28 | 233 °C | CN(C)Cc1ccc(N/C(=C2\C(=O)Nc3ccc([N+](=O)[O-])cc32)c2ccc([N+](=O)[O-])cc2)cc1
29 | 345 to 346 °C | CC(=O)NCc1ccc(N/C(=C2\C(=O)Nc3ccc([N+](=O)[O-])cc32)c2ccccc2)cc1 [Example 143, (Z)-3-[1-(4-acetylaminomethyl-phenylamino)-1-phenyl-methylidene]-5-nitro-2-indolinone]
30 | 204 to 206 °C | COC1CCN(Cc2ccc(N/C(=C3\C(=O)Nc4ccc([N+](=O)[O-])cc43)c3ccccc3)cc2)CC1 [Example 171, (Z)-3-{1-[4-(4-methoxypiperidinomethyl)-phenylamino]-1-phenyl-methylidene}-5-nitro-2-indolinone]
31 | 300 to 302 °C | O=C1Nc2ccc([N+](=O)[O-])cc2/C1=C(/Nc1ccc(CN2CCCCC2)cc1)c1ccc(C(F)(F)F)cc1 [Example 442, (Z)-3-[1-(4-piperidinomethyl-phenylamino)-1-(4-trifluoromethyl-phenyl)-methylidene]-5-nitro-2-indolinone]
32 | 230 °C | O=C1Nc2ccc([N+](=O)[O-])cc2/C1=C(/Nc1ccc(CN2CCCCC2)cc1)c1ccc(C(=O)O)cc1 [Example 445, (Z)-3-[1-(4-piperidinomethyl-phenylamino)-1-(4-carboxyphenyl)-methylidene]-5-nitro-2-indolinone]
33 | 335 to 340 °C (dec.) | Cl.NCCc1ccc(N/C(=C2\C(=O)Nc3ccc([N+](=O)[O-])cc32)c2ccccc2)cc1
34 | 252 °C | O=C1Nc2ccc([N+](=O)[O-])cc2/C1=C(/Nc1ccc(CN2CCC(Cc3ccccc3)CC2)cc1)c1ccccc1 [Example 172, (Z)-3-{1-[4-(4-phenylmethyl-piperidinomethyl)-phenylamino]-1-phenyl-methylidene}-5-nitro-2-indolinone]
